Assay results: PMC6917776, “Discovery of a chemical probe for PRDM9” (Nature Communications, 2019)

How the values were obtained:
Assay in all cases: CelltiterGlo viability cell assay
Type in all cases: cell-based
HCC1806 = system: HCC1806
Description: (§1) Supplementary Figure 13. […] Viability of
(§2) (a) Multiple Myeloma lines and (b) Breast Cancer cell lines following 3 or 6 days treatment with […]
(§3) manufacturer’s instructions as described in the Supplementary methods. Data are normalized to DMSO control. N=3 biological replicates, +/- SEM. Source data are provided as a Source Data […]
(§4) CelltiterGlo viability cell assay
(§5) Cells were seeded in 96 well plates at per-well densities of 10000 (MDA-MB436, ATCC-HTB130), 15000 (8226, kind gift from Rodger Tiedemann, Princess Margaret Cancer Centre), […]
(§6) kind gift from Rodger Tiedemann, Princess Margaret Cancer Centre) and 50000 (CAL851, kind gift from Mathieu Lupien, Princess Margaret Cancer Centre) and were treated at increasing concentrations of compounds ranging from 0.01 μM to 30 μM and assessed for proliferation using CelltiterGlo (Promega) following manufacturer’s instructions, as readout on days 3 and 6 as indicated. All cell lines were mycoplasma negative, as determined by MycoAlert™ Mycoplasma Detection Kit(Lonza). […]

HCC1143 = system: HCC1143
Description: as §1, §2, §3, §4, §5, §6

CAL851 = conditions: CAL851, 3 day, 0.01 uM
Description: as §1, §2, §3, §4, §5, §6

With `COc1cc(OC)cc(-c2noc(N3CCN(C)C4(CCN(c5ccccc5)CC4)C3)n2)c1` [MRK-740N] the “viability Replicate 2” value (HCC1806; HCC1806, 3 day, 30 uM) was 27.69, the “viability Replicate 3” value (HCC1806; HCC1806, 3 day, 30 uM) was 36.41 and the “viability Average” value (HCC1806; HCC1806, 6 day, 0.03 uM) was 104.14. The “viability Replicate 1” value (HCC1806; HCC1806, 6 day, 0.03 uM) was 102.41, the “viability Replicate 2” value (HCC1806; HCC1806, 6 day, 0.03 uM) was 102.60 and the “viability Replicate 3” value (HCC1806; HCC1806, 6 day, 0.03 uM) was 107.42. For the same compound, the “viability Average” value (HCC1806; HCC1806, 6 day, 0.1 uM) was 107.97, the “viability Replicate 1” value (HCC1806; HCC1806, 6 day, 0.1 uM) was 107.96 and the “viability Replicate 2” value (HCC1806; HCC1806, 6 day, 0.1 uM) was 108.22. For the same compound, the “viability Replicate 3” value (HCC1806; HCC1806, 6 day, 0.1 uM) was 107.74, the “viability Average” value (HCC1806; HCC1806, 6 day, 0.3 uM) was 112.99 and the “viability Replicate 1” value (HCC1806; HCC1806, 6 day, 0.3 uM) was 109.14. The “viability Replicate 2” value (HCC1806; HCC1806, 6 day, 0.3 uM) was 116.56, the “viability Replicate 3” value (HCC1806; HCC1806, 6 day, 0.3 uM) was 113.26 and the “viability Average” value (HCC1806; HCC1806, 6 day, 1 uM) was 115.10. For the same compound, the “viability Replicate 1” value (HCC1806; HCC1806, 6 day, 1 uM) was 111.79, the “viability Replicate 2” value (HCC1806; HCC1806, 6 day, 1 uM) was 117.79 and the “viability Replicate 3” value (HCC1806; HCC1806, 6 day, 1 uM) was 115.71. For the same compound, the “viability Average” value (HCC1806; HCC1806, 6 day, 3 uM) was 114.65, the “viability Replicate 1” value (HCC1806; HCC1806, 6 day, 3 uM) was 112.70 and the “viability Replicate 2” value (HCC1806; HCC1806, 6 day, 3 uM) was 114.15. The “viability Replicate 3” value (HCC1806; HCC1806, 6 day, 3 uM) was 117.09, the “viability Average” value (HCC1806; HCC1806, 6 day, 9.5 uM) was 110.91 and the “viability Replicate 1” value (HCC1806; HCC1806, 6 day, 9.5 uM) was 107.82. For the same compound, the “viability Replicate 2” value (HCC1806; HCC1806, 6 day, 9.5 uM) was 111.79, the “viability Replicate 3” value (HCC1806; HCC1806, 6 day, 9.5 uM) was 113.11 and the “viability Average” value (HCC1806; HCC1806, 6 day, 30 uM) was 35.99. For the same compound, the “viability Replicate 1” value (HCC1806; HCC1806, 6 day, 30 uM) was 27.63, the “viability Replicate 2” value (HCC1806; HCC1806, 6 day, 30 uM) was 38.19 and the “viability Replicate 3” value (HCC1806; HCC1806, 6 day, 30 uM) was 42.14. For the same compound, the “viability Average” value (HCC1143; HCC1143, 3 day, 0.01 uM) was 99.63, the “viability Replicate 1” value (HCC1143; HCC1143, 3 day, 0.01 uM) was 94.06 and the “viability Replicate 2” value (HCC1143; HCC1143, 3 day, 0.01 uM) was 105.87. The “viability Replicate 3” value (HCC1143; HCC1143, 3 day, 0.01 uM) was 98.96, the “viability Average” value (HCC1143; HCC1143, 3 day, 0.03 uM) was 100.04 and the “viability Replicate 1” value (HCC1143; HCC1143, 3 day, 0.03 uM) was 98.98. The “viability Replicate 2” value (HCC1143; HCC1143, 3 day, 0.03 uM) was 103.01, the “viability Replicate 3” value (HCC1143; HCC1143, 3 day, 0.03 uM) was 98.14 and the “viability Average” value (HCC1143; HCC1143, 3 day, 0.1 uM) was 100.66. The “viability Replicate 1” value (HCC1143; HCC1143, 3 day, 0.1 uM) was 94.28, the “viability Replicate 2” value (HCC1143; HCC1143, 3 day, 0.1 uM) was 108.89 and the “viability Replicate 3” value (HCC1143; HCC1143, 3 day, 0.1 uM) was 98.81. For the same compound, the “viability Average” value (HCC1143; HCC1143, 3 day, 0.3 uM) was 101.81, the “viability Replicate 1” value (HCC1143; HCC1143, 3 day, 0.3 uM) was 94.36 and the “viability Replicate 2” value (HCC1143; HCC1143, 3 day, 0.3 uM) was 110.71. For the same compound, the “viability Replicate 3” value (HCC1143; HCC1143, 3 day, 0.3 uM) was 100.36, the “viability Average” value (HCC1143; HCC1143, 3 day, 1 uM) was 102.28 and the “viability Replicate 1” value (HCC1143; HCC1143, 3 day, 1 uM) was 95.62. For the same compound, the “viability Replicate 2” value (HCC1143; HCC1143, 3 day, 1 uM) was 111.25, the “viability Replicate 3” value (HCC1143; HCC1143, 3 day, 1 uM) was 99.98 and the “viability Average” value (HCC1143; HCC1143, 3 day, 3 uM) was 102.58. The “viability Replicate 1” value (HCC1143; HCC1143, 3 day, 3 uM) was 95.70, the “viability Replicate 2” value (HCC1143; HCC1143, 3 day, 3 uM) was 110.25 and the “viability Replicate 3” value (HCC1143; HCC1143, 3 day, 3 uM) was 101.79. For the same compound, the “viability Average” value (HCC1143; HCC1143, 3 day, 9.5 uM) was 96.93, the “viability Replicate 1” value (HCC1143; HCC1143, 3 day, 9.5 uM) was 91.87 and the “viability Replicate 2” value (HCC1143; HCC1143, 3 day, 9.5 uM) was 108.74. For the same compound, the “viability Replicate 3” value (HCC1143; HCC1143, 3 day, 9.5 uM) was 90.19, the “viability Average” value (HCC1143; HCC1143, 3 day, 30 uM) was 42.44 and the “viability Replicate 1” value (HCC1143; HCC1143, 3 day, 30 uM) was 41.34. For the same compound, the “viability Replicate 2” value (HCC1143; HCC1143, 3 day, 30 uM) was 45.73, the “viability Replicate 3” value (HCC1143; HCC1143, 3 day, 30 uM) was 40.25 and the “viability Average” value (HCC1143; HCC1143, 6 day, 0.03 uM) was 106.15. For the same compound, the “viability Replicate 1” value (HCC1143; HCC1143, 6 day, 0.03 uM) was 104.58, the “viability Replicate 2” value (HCC1143; HCC1143, 6 day, 0.03 uM) was 106.98 and the “viability Replicate 3” value (HCC1143; HCC1143, 6 day, 0.03 uM) was 106.88. The “viability Average” value (HCC1143; HCC1143, 6 day, 0.1 uM) was 106.29, the “viability Replicate 1” value (HCC1143; HCC1143, 6 day, 0.1 uM) was 110.44 and the “viability Replicate 2” value (HCC1143; HCC1143, 6 day, 0.1 uM) was 106.94. The “viability Replicate 3” value (HCC1143; HCC1143, 6 day, 0.1 uM) was 101.48, the “viability Average” value (HCC1143; HCC1143, 6 day, 0.3 uM) was 109.27 and the “viability Replicate 1” value (HCC1143; HCC1143, 6 day, 0.3 uM) was 115.47. The “viability Replicate 2” value (HCC1143; HCC1143, 6 day, 0.3 uM) was 108.44, the “viability Replicate 3” value (HCC1143; HCC1143, 6 day, 0.3 uM) was 103.89 and the “viability Average” value (HCC1143; HCC1143, 6 day, 1 uM) was 112.12. The “viability Replicate 1” value (HCC1143; HCC1143, 6 day, 1 uM) was 119.58, the “viability Replicate 2” value (HCC1143; HCC1143, 6 day, 1 uM) was 108.44 and the “viability Replicate 3” value (HCC1143; HCC1143, 6 day, 1 uM) was 108.34. For the same compound, the “viability Average” value (HCC1143; HCC1143, 6 day, 3 uM) was 118.66, the “viability Replicate 1” value (HCC1143; HCC1143, 6 day, 3 uM) was 128.58 and the “viability Replicate 2” value (HCC1143; HCC1143, 6 day, 3 uM) was 111.85. For the same compound, the “viability Replicate 3” value (HCC1143; HCC1143, 6 day, 3 uM) was 115.55, the “viability Average” value (HCC1143; HCC1143, 6 day, 9.5 uM) was 112.33 and the “viability Replicate 1” value (HCC1143; HCC1143, 6 day, 9.5 uM) was 117.62. For the same compound, the “viability Replicate 2” value (HCC1143; HCC1143, 6 day, 9.5 uM) was 107.90, the “viability Replicate 3” value (HCC1143; HCC1143, 6 day, 9.5 uM) was 111.46 and the “viability Average” value (HCC1143; HCC1143, 6 day, 30 uM) was 53.32. For the same compound, the “viability Replicate 1” value (HCC1143; HCC1143, 6 day, 30 uM) was 56.13, the “viability Replicate 2” value (HCC1143; HCC1143, 6 day, 30 uM) was 63.79 and the “viability Replicate 3” value (HCC1143; HCC1143, 6 day, 30 uM) was 40.04. The “viability Average” value (CAL851) was 102.43, the “viability Replicate 1” value (CAL851) was 104.57 and the “viability Replicate 2” value (CAL851) was 100.53. The “viability Replicate 3” value (CAL851) was 102.20.
